Test results as given in article PMC10470319 (iScience, 2023).
Entries after “also recorded” stand apart in the source; their conditions may differ.

Tests used:
[1] = target: T1, SARS-CoV-2 Mpro (Severe acute respiratory syndrome coronavirus 2, UniProt P0DTD1); test: biochemical; details: for inhibition of Mpro in the initial screen: 17 μM
[2] = test system: SARS-CoV-2; assay type: cell-based
[3] = target: T1, SARS-CoV-2 Mpro; assay type: biochemical
[4] = target: T1, SARS-CoV-2 Mpro; assay type: biochemical; remark: listed apart in the source
[5] = test system: Vero E6 cells
[6] = test system: Calu-3 cells; details: cited from earlier work
[7] = test system: SARS-CoV-2; details: read-out: IC50 for inhibition of SARS-CoV-2 replication; cited from earlier work
[8] = test system: SARS-CoV-2 infection; details: in vivo; cited from earlier work

SMILES | inhibition of Mpro in the initial screen [1] | inhibition of SARS-CoV-2 replication (in words) [2] | reversibility of Mpro inhibition on dilution [3] | inhibition of Mpro activity, mass spectrometry assay [4] | also measured
O=c1c(O)c(-c2cc(O)c(O)c(O)c2)oc2cc(O)cc(O)c12 [Myricetin, reference compound] | showed inhibition | inhibits SARS-CoV-2 replication | irreversible | – | –
O=C1C[C@@H](c2ccccc2)Oc2cc(O)cc(O)c21 [pinocembrin] | – | – | – | – | inhibition of Mpro (in words) [1]: relatively poor inhibition
O=c1c(-c2c(O)cc(O)c3c(=O)cc(-c4ccc(O)cc4)oc23)c(-c2ccc(O)cc2)oc2cc(O)cc(O)c12 [3,8'-Biapigenin] | – | – | – | completely inhibited | –
O=c1cc(-c2ccc(O)cc2)oc2cc(O)cc(O)c12 [apigenin] | – | slightly better than baicalein at 50 μM; also recorded: inhibits viral replication at concentrations that are not toxic | reversible | – | toxicity in cell culture [5]: some toxicity; IC50 [1]: 20 ± 9 µM; CC50 [6]: 302 ± 15 µM; IC50 [7]: 5.11 ± 0.26 µM
O=c1cc(-c2ccccc2)oc2cc(O)c(O)c(O)c12 [Baicalein, reference compound] | showed inhibition | inhibited SARS-CoV-2 infection | reversible | – | body weight after SARS-CoV-2 infection [8]: prevented reduction in body weight; lung injury resulting from SARS-CoV-2 infection [8]: decreased lung injury
O=c1cc(-c2ccc(O)c(-c3c(O)cc(O)c4c(=O)cc(-c5ccc(O)cc5)oc34)c2)oc2cc(O)cc(O)c12 [Amentoflavone] | – | – | reversible | completely inhibited | –
